Values of other authors, collected in US20240165069A1, “METHODS FOR TREATING DYSGEUSIA AND OTHER LINGERING SYMPTOMS ASSOCIATED WITH SEVERE ACUTE RESPIRATORY SYNDROME CORONAVIRUS 2 INFECTIONADN CORONAVIRUS DISEASE 2019” (Nocendra, Inc., priority 2021, published 2024).

Tested on: oral inflammation
Settings: Phase 1 trial

Question: Which safety profile (50 subjects receiving drug, oral topical mouth rinse, versus placebo mouth rinse) does the source give for `CCCCC[C@@H](O)/C=C/c1ccccc1/C=C/[C@@H](O)[C@@H](O)CCCC(=O)O` [BLXA4, 9,12-benzo-lipoxin A4] here?
Answer: indistinguishable from placebo mouth rinse in safety profile

Question: What about the “efficacy (reversal of inflammation)” value (oral topical mouth rinse, not powered for efficacy, trends only) of the same compound?
Answer: trends in the efficacy data suggested reversal of inflammation

Question: And the “pro-resolving lipid mediator shift in serum” value (topical BLXA4, serum of the subjects)?
Answer: elicited a pro-resolving lipid mediator shift in the serum
